This note sets out measurements from patent publication US12329729B1, “Method of treating cancer in a subject” (IMAM MOHAMMAD IBN SAUD ISLAMIC UNIVERSITY, priority 2024, dated 2025).

Values after ≈ are worked out from the molar mass of the structure shown.

Holding throughout (assay type): cell-based
One experiment has as its system A549. As to the kind of experiment: IC50 towards A549 cancer cell line. Particulars: Homo sapiens.
In a further experiment the test system is PC3. As to the kind of experiment: IC50 towards PC3 cancer cell line. Particulars: Homo sapiens, PC-3.
For a further experiment, the system named is FaDu. Description: IC50 towards FaDu cancer cell line. Conditions: Homo sapiens.
The subject of another experiment is MDA-MB-468. Description: IC50 towards MDA-MB-468 cancer cell line. Conditions: Homo sapiens.
In the next experiment the test system is HeLa. Description: IC50 towards HeLa cancer cell line. Conditions: Homo sapiens.
The subject of a further experiment is p53. Description: Upregulation of pro-apoptotic protein p53. Particulars: compared to the control (untreated) cells.
The next experiment concerns BAX. As to the kind of experiment: Upregulation of pro-apoptotic protein BAX. Conditions: compared to the control (untreated) cells.
Another experiment relates to Caspase 3. As to the kind of experiment: Upregulation of pro-apoptotic protein Caspase 3. Particulars: compared to the control (untreated) cells.
Another experiment has as its system Caspase 6. As to the kind of experiment: Upregulation of pro-apoptotic protein Caspase 6. Particulars: compared to the control (untreated) cells.
For a further experiment, the system named is Caspase 8. As to the kind of experiment: Upregulation of pro-apoptotic protein Caspase 8. Particulars: compared to the control (untreated) cells.
For a further experiment, the system named is Caspase 9. Description: Upregulation of pro-apoptotic protein Caspase 9. Conditions: compared to the control (untreated) cells.
The subject of a further experiment is BCL-2. As to the kind of experiment: Downregulation of anti-apoptotic protein BCL-2. Particulars: compared to the control (untreated) cells.
A further experiment deals with MMP2. As to the kind of experiment: Downregulation of. Particulars: compared to the control (untreated) cells.
The subject of a further experiment is MMP9. As to the kind of experiment: Downregulation of. Conditions: compared to the control (untreated) cells.
The next experiment deals with COX-2. Description: Downregulation of pro-inflammatory marker COX-2. Conditions: compared to the control (untreated) cells.
In the next experiment the test system is IL-6. As to the kind of experiment: Downregulation of. Particulars: compared to the control (untreated) cells.
Another experiment has as its system IL-1β. Description: Downregulation of pro-inflammatory marker IL-1β. Conditions: compared to the control (untreated) cells.

In the case of `CCOc1ccc(Oc2ccc(/C=N/c3ccc([Se][Se]c4ccc(/N=C/c5ccc(Oc6ccc(OCC)cc6)cc5)cc4)cc3)cc2)cc1` [YS9, N,N′-(Diselanediylbis(4,1-phenylene))bis(1-(4-(4-ethoxyphenoxy)phenyl)methanimine)], the IC50 is 4.4 µg/mL (≈ 5.56 µM) in the experiment with A549; 12 µg/mL (≈ 15.1 µM) with PC3; 4.73 µg/mL (≈ 5.98 µM) with FaDu; 6 µg/mL (≈ 7.59 µM) in the experiment on MDA-MB-468; 4 µg/mL (≈ 5.06 µM) in the experiment on HeLa. For the same molecule, the “upregulation of p53” value with p53 came out at 3.50 fold changes. Further, in the experiment with BAX, the “upregulation of BAX” value stood at 1.95 fold changes. Further, the “upregulation of Caspase 3” value in the experiment on Caspase 3 was 5.82 fold changes. Besides, the “upregulation of Caspase 6” value in the experiment with Caspase 6 was found to be 10.37 fold changes. Further, the “upregulation of Caspase 8” value with Caspase 8 is listed as 3.16 fold changes. Also, in the experiment on Caspase 9, the “upregulation of Caspase 9” value is listed as 2.41 fold changes. In the experiment with BCL-2, the “downregulation of BCL-2” value is listed as 0.35 fold changes. In addition, in the experiment with MMP2, the “downregulation of MMP2” value was found to be 0.31 fold changes. In the experiment on MMP9, the “downregulation of MMP9” value worked out at 0.48 fold changes. For the same molecule, the “downregulation of COX-2” value with COX-2 is given as 0.37 fold changes. Also, in the experiment on IL-6, the “downregulation of IL-6” value is given as 0.48 fold changes. Moreover, the “downregulation of IL-1β” value in the experiment with IL-1β is 0.46 fold changes.

Consider `COc1cccc2c1C(=O)c1c(O)c3c(c(O)c1C2=O)C[C@@](O)(C(=O)CO)C[C@@H]3O[C@H]1C[C@H](N)[C@H](O)[C@H](C)O1` [doxorubicin, reference compound], for which the results for the IC50 in the experiment with PC3 and in the experiment with FaDu were 5.83 µg/mL (≈ 10.7 µM) and 13.1 µg/mL (≈ 24.1 µM), respectively.
